{"source": "patent US7851449B2", "about": "“Peptide, pharmaceutical composition, and a method of treating microcirculation disorders” (Obschestvo S Ogranichennoi Otvetstvennostyu “SIA Peptides”, priority 2006, dated 2010)", "key": {"white mongrel male rats": {"test_system": "white mongrel male rats", "assay": "Sub-acute toxicity, 90 days daily intramuscular administration", "assay_type": "in vivo", "conditions": "daily i.m. 90 days, doses exceeding the therapeutic one by 100-1000 times", "method": "The study of sub-acute toxicity was performed on 60 white mongrel male rats with body weight of 160-240 g. […] Morphology and properties of the animals' peripheral blood were studied before the administration of the substance, as well as on the 30th, 60th and 90th day after the beginning of the administration. Upon completion of the experiment biochemical and coagulologic indices of the blood were also evaluated."}, "vascular wall explants": {"test_system": "vascular wall explants", "assay": "Development of vascular wall explants (area index)", "assay_type": "cell-based, Wistar rats", "method": "The experiments were conducted on 32 fragments of vascular wall from the peripheral artery of Wistar rats with body weight of 150-200 g. Nutritional medium for explants cultivation consisted of 35% Eagle's solution, 25% calf fetal serum, 35% Hanx solution, 5% chicken embryonic extract, with the addition of glucose (0.6%), insulin (0,5 units/ml), penicillin (100 units/ml), glutamine (2 mM). […] Peptide H-Lys-Glu-Asp-OH was added into the medium, in the concentration of 1, 10, 100 and 200 ng/ml.\nArea index (AI), i.e. the ratio of total explant area together with the growth zone to the initial area of vascular wall fragment served as the criterion of biologic activity. AI values were expressed in percent, control AI values being considered as 100%."}, "[1]": {"test_system": "rats with experimental parodontitis", "assay": "Microcirculation in rats with experimental parodontitis (gingiva biomicroscopy, laser dopplerography)", "assay_type": "in vivo", "design": "capillaries density per area unit: unit not given here", "conditions": "for diameter of the capillaries: in µm", "method": "The experiments were conducted on 45 white mongrel male and female rats with body weight of 180-200 g. The model of light parodontitis was induced by the method of differentiated feeding of rats with standard granulated PK-120 forage for 1.5 months.\nThe animals were divided into 3 groups 15 rats in each: the animals of the first group, suffering from parodontitis didn't receive any treatment, rats in the second group suffering from experimental parodontitis were injected with 0.1 ml of sterile 0.9% NaCl solution into the mucous of the gingiva transitional fold (control); the animals of the third group with experimental parodontitis were subjected to a daily single injection of H-Lys-Glu-Asp-OH peptide in the dose of 2 μg in the 0.1 ml of sterile 0,9% NaCl solution into the mucous gingiva transitional fold with simultaneous rubbing in of peptide solution for 10 days.\nDuring all experiments there was conducted a biomicroscopy of mucous membrane of the rats gingiva under nembutal anaesthesia with usage of contact object lenses and estimated the blood flow rate in capillaries by means of laser capillary blood flow analyzer LAKK-01. The studies were conducted in 3 areas of the gingiva, in the free gingiva, attached gingiva and transitional fold in case of 100 magnification. Clinical signs of the parodontitis were evaluated visually."}, "[2]": {"test_system": "skin capillaries of patients with hypovitaminosis", "assay": "Skin capillary resistance in patients with hypovitaminosis (Rumpel-Leede-Konchalovskiy cuff test)", "assay_type": "in vivo", "method": "The study was conducted on 25 patients aged 19-35, reporting signs of hypovitaminosis in spring. The patients were randomly divided into 2 groups.\nThe patients of the main group were divided into three sub-groups depending on the hypovitaminosis severity. Patients suffering from the severe hypovitaminosis were subjected to a daily single intramuscular injection of pharmaceutical composition containing H-Lys-Glu-Asp-OH peptide as its active base, in the dose of 5.0 mg in 1.0 ml of sterile 0.9% NaCl solution for 10 days; patients with moderately sever hypovitaminosis—in the dose of 100.0 μg, and patients with mild signs of hypovitaminosis—in the dose of 1.0 μg.\nControl group consisted of 18 patients, subjected to an injection of physiological solution following the same scheme. Both groups received only balanced vitamin containing diet.\nThe estimation of the H-Lys-Glu-Asp-OH peptide effect on resistance of skin capillaries was conducted by means of Rumpel-Leede-Konchalovskiy capillary fragility test. A blood-pressure cuff was applied to the upper part of the arm of the patients. Then there was maintained pressure up to 200 mmHg for 3 minutes. Skin capillary resistance was evaluated on the area of the dosed load on skin capillaries (under the cuff). Hemorrhages were counted with a help of the magnifying glass.\nSkin capillary resistance was graded according to the five-point scale: […]"}, "[3]": {"test_system": "patients with purpura senilis", "assay": "Hemostasis indices and Hess test in patients with purpura senilis", "assay_type": "in vivo", "method": "The study was conducted on 23 patients aged 70-82, suffering from purpura senilis, who complained of frequent spontaneous hemorrhages on the face, neck, forearms and hands. The patients reported progressive development of the disease.\nThe patients were randomly divided into two groups. The main group consisted of 12 patients, who were injected with pharmaceutical composition, containing peptide H-Lys-Glu-Asp-OH as its active base, in the dose of 100 μg in 1.0 ml of physiological solution daily intramuscularly for 10 days. Control group consisted of 11 patients, injected with sterile physiological solution following the same scheme.\nComplains of the patients were analyzed in dynamics, also there were conducted general blood and urine tests, blood biochemical test. In order to study hemostasis there were made blood coagulogramm and Hess test with a tourniquet."}, "male guinea pigs [4]": {"test_system": "male guinea pigs", "conditions": "in vivo", "procedure": "(§1) The studies of chronic toxicity were conducted for 6 months, basing on the term of recommended clinical administration of the substance, on 96 male guinea pigs with body weight of 300-340 g. Experimental animals received the peptide daily, once a day, intramuscularly, for 6 months in the doses of 1 μg/kg, 0.1 mg/kg, 1 mg/kg in 0.5 ml of sterile 0.9% NaCl solution. Control animals received sterile 0.9% NaCl solution in the same volume and by the same schedule. Traditional methods were used for the evaluation of the following indices of the animals' peripheric blood: the quantity of erythrocytes, hemoglobin, reticulocytes, thrombocytes, leukocytes, leukocyte formula, erythrocyte sedimentation rate (ESR), erythrocyte resistance. Alongside with that, the content of total protein in the serum was identified using Lowry's method, as well as potassium and sodium content using the method of plasma spectrophotometry. Upon the completion of the experiment pathomorphologic studies of animal brain and spinal cord, spinal cord ganglia, thyroid gland, parathyroid glands, adrenal glands, testis, pituitary body, heart, lungs, aorta, liver, kidneys, urinary bladder, pancreas, stomach, small intestine, large intestine, thymus, spleen, lymph nodes and bone marrow were performed."}, "male guinea pigs [5]": {"test_system": "male guinea pigs", "assay": "Chronic toxicity, 6 months daily intramuscular administration; peripheric blood morphology and biochemical indices", "conditions": "long-term administration", "procedure": "as §1"}}, "note": "Marks after values point to notes of the source that are not given here. Peptide text beside a SMILES is read from it.", "data": [{"smiles": "NCCCCC(N)C(=O)NC(CCC(=O)O)C(=O)NC(CC(=O)O)C(=O)O", "note": "(stereo not drawn) [H-Lys-Glu-Asp-OH, lysyl-glutamyl-asparagine acid] (H-Lys-Glu-Asp-OH; configuration not given here)", "values": [{"measurement": "side effects in long-term administration (subacute toxicity)", "setting": "white mongrel male rats", "value": "absence of any side effects"}, {"measurement": "Area index (AI) growth as compared to the control AI", "setting": "vascular wall explants; 100 ng/ml, 3rd day of cultivation, statistically significant", "value": 24, "unit": "%"}, {"measurement": "effect on vascular wall explants after longer cultivation", "setting": "vascular wall explants; 7 days of cultivating, same concentrations", "value": "same stimulating effect"}, {"measurement": "biomicroscopy of gingival mucous membrane", "setting": "[1]; attached gingiva and transitional fold, 2 μg daily for 10 days", "value": "complete correction of the microcirculation"}, {"measurement": "index of microcirculation (IM)", "setting": "[1]; attached gingiva, 2 μg daily for 10 days, NaCl control 0.63±0.04", "value": "0.22±0.05"}, {"measurement": "diameter of the capillaries", "setting": "[1]; attached gingiva, 2 μg daily for 10 days, NaCl control 9.8±0.35", "value": "7.8±0.20"}, {"measurement": "blood flow rate (laser dopplerography)", "setting": "[1]; attached gingiva, 2 μg daily for 10 days, NaCl control 17±0.7", "value": "20±1.1", "unit": "conv. units"}, {"measurement": "capillaries density per area unit", "setting": "[1]; average of gingiva parts, 2 μg daily for 10 days, norm 29.3±2.3, NaCl control 30±1.5", "value": "34±2.7"}, {"measurement": "diameter of the capillaries", "setting": "[1]; free gingiva, 2 μg daily for 10 days, NaCl control 12.3±0.36 (μm printed only)", "value": "8.2±0.1"}, {"measurement": "blood flow rate (laser dopplerography)", "setting": "[1]; free gingiva, 2 μg daily for 10 days, norm 18±1.3, NaCl control 15±1.5", "value": "20±0.9", "unit": "conv. units"}, {"measurement": "index of microcirculation (IM)", "setting": "[1]; free gingiva, 2 μg daily into gingiva for 10 days, normal 0.21±0.30, NaCl control 0.75±0.03", "value": "0.29±0.15"}, {"measurement": "index of microcirculation (IM)", "setting": "[1]; transitional fold, 2 μg daily for 10 days, NaCl control 0.39±0.02", "value": "0.20±0.18"}, {"measurement": "diameter of the capillaries", "setting": "[1]; transitional fold, 2 μg daily for 10 days, NaCl control 9.1±0.09", "value": "6.57±0.1"}, {"measurement": "blood flow rate (laser dopplerography)", "setting": "[1]; transitional fold, 2 μg daily for 10 days, NaCl control 19±1.2", "value": "19±2.3", "unit": "conv. units"}, {"measurement": "Cuff test indices", "setting": "[2]; After administration, daily i.m. 1.0 μg, 100.0 μg or 5.0 mg by severity, 10 days, P < 0.05 vs before", "value": "II* (from 6 to 15)"}, {"measurement": "Cuff test indices", "setting": "[2]; Before administration (baseline of the peptide group)", "value": "III-IV"}, {"measurement": "number of skin hemorrhages", "setting": "[2]; before treatment, patients of both groups", "value": "30-47"}, {"measurement": "number of skin hemorrhages", "setting": "[2]; main group after the treatment, control group unchanged", "value": "6-8"}, {"measurement": "Ethanol test", "setting": "[3]; 100 μg daily i.m. 10 days, healthy 0, control 43.8", "value": "14.3** % of the positive cases"}, {"measurement": "Fibrinogen", "setting": "[3]; 100 μg daily i.m. 10 days, healthy 3.2 ± 0.4, control 2.9 ± 0.1", "value": "2.5 ± 0.1", "unit": "g/L"}, {"measurement": "Prothrombin time", "setting": "[3]; 100 μg daily i.m. 10 days, healthy 12.5 ± 0.1, control 12.4 ± 0.4", "value": "13.3 ± 0.1", "unit": "s"}, {"measurement": "Thrombin time", "setting": "[3]; 100 μg daily i.m. 10 days, healthy 18.2 ± 0.6, control 16.0 ± 0.2", "value": "17.1 ± 0.2", "unit": "c"}, {"measurement": "Activated partial thromboplastin time", "setting": "[3]; 100 μg daily i.m. 10 days, healthy 32.3 ± 2.1, control 48.0 ± 1.3", "value": "58.9 ± 0.7", "unit": "s"}, {"measurement": "Euglobulin fibrinolysis", "setting": "[3]; 100 μg daily i.m. 10 days, healthy 150.0 ± 6.8, control 163.5 ± 5.0", "value": "156.2 ± 3.9", "unit": "min"}, {"measurement": "Time of recalcification", "setting": "[3]; 100 μg daily i.m. 10 days, healthy 178.0 ± 14.0, control 147.3 ± 4.2", "value": "164.2 ± 2.4"}, {"measurement": "Hess test (vascular walls durability)", "setting": "[3]; after administration of the pharmaceutical composition", "value": "reduction in the number of hemorrhages"}, {"measurement": "side effects in long-term administration (chronic toxicity)", "setting": "male guinea pigs [4]; guinea pig", "value": "absence of any side effects"}, {"measurement": "changes in guinea pig blood morphology and biochemical indices", "setting": "male guinea pigs [4]", "value": "no statistically significant changes"}, {"measurement": "pathologic alterations (general status, blood indices, organ morphology, cardiovascular, respiratory, liver and kidney functions)", "setting": "male guinea pigs [5]", "value": "no pathologic alterations"}]}]}
